How the values were obtained:
[1] = test system: eNOS gene; assay: eNOS gene expression by semi-quantitative RT-PCR in H9C2 cells; type: cell-based, rat; details: for Regulation in Terms of Folds, eNOS (normalized to β-Actin): control = 1.00
Experimental: The test substances were evaluated for its gene expression activity in H9C2 (rat cardiomyocytes), the concentration of test substances (G2, G3 and G4,) is 500 μg/ml were taken for gene expression studies. […] [Hunter C. Champion, et al., PNAS, 2005; 102:5:1661-1666.]
eNOS were estimated for the test substance by gene expression method, where the level of expression of eNOS expression on […] Cardiomyocytes (H9C2) was determined with respect to untreated H9C2 cells.
The H9C2 cells treated with test samples were subjected to cell lysis by treating with Tri-extract reagent. Chloroform was added, to isolate the total RNA from the sample and subjected for centrifugation. Out of the three distinct layers observed, upper layer was collected in fresh tube and equal volume of isopropanol was added and incubated at […] for 10 mins. After the incubation followed by centrifugation, appropriate volume of ethanol was added to resuspend the pellet. After incubation and centrifugation, the pellet was air dried and appropriate volume of TAE buffer was added. The isolated total RNA was further used for cDNA synthesis. cDNA was synthesized by priming with oligo-dT primers followed by reverse transcriptase enzyme treatment according to manufacturer's protocol (Thermoscientific). The cDNA thus synthesized was taken up for PCR for the amplification of eNOS and GAPDH (internal control).
The mRNA expression levels of eNOS were determined using semi-quantitative reverse transcriptase-polymerase chain reaction (RT-PCR). 50p of the reaction mixture was subjected to PCR for amplification of eNOS. cDNAs using specifically designed primers procured from Eurofins, India and as an internal control GAPDH/3-Actin (House-keeping genes) was co-amplified with each reaction.
eNOS: 95° C. for 5 min followed by 35 cycles of denaturation at 95° C. for 30 seconds, annealing Temp for 30 seconds and extension at 72° C. for 45 seconds. This was followed by final extension at 72° C. for 10 min.

[2] = test system: Swiss albino mice (tail immersion model); assay: Tail immersion model, analgesic potential in experimental mice; type: in vivo; details: for Tail immersion latency reaction time: water 55° C., cut off 15 second, Mean ± SEM, n=6; for Percentage maximum possible effect: [(Post drug latency-Pre drug latency)/(15-Pre drug latency)]×100
Experimental: Animal Study—Evaluation of analgesic potential of the test substances against tail immersion model in experimental mice.
Male Swiss albino mice weighing between 30-35 g were used. Mice were placed into individual cylindrical mice holders leaving the tail hanging out freely. The animals were allowed to get acclimatized to mice holders for 30 min before testing. The lower 5 cm portion of the tail was marked. This part of the tail was immersed in a cup of freshly filled water at 55° C. The reaction time was recorded using a stop-watch. After each determination the tail was carefully dried. The reaction time was determined before and periodically 0 min, 30 min, 60 min, 90 min, 120 min, 180 min and 240 min after the oral administration of test substance. The cut off time of immersion was 15 second. The percentage maximum possible effect (% MPE) was calculated using the following formula: [(Post drug latency-Pre drug latency)/(15-Pre drug latency)]×100.
The values were expressed in Mean±SEM. The significance of in vivo data was analyzed by One way anova followed by Dunnet test. P<0.05 was considered as statistically significant.

CCCCCCCCCCCCCCCC(=O)NCCO [Composition P3A, palmitoylethanolamide]
eNOS expression over expressed as compared to the control ([1]; at tested doses (500 μg/ml), increase over control): 0.25 folds
Regulation in Terms of Folds, eNOS (normalized to β-Actin) ([1]; test substance 500 μg/ml): 1.25 fold
Tail immersion latency reaction time ([2]; 0 Min, oral): 2.50 s
Tail immersion latency reaction time ([2]; 30 Min after oral administration): 5.17 s
Percentage maximum possible effect ([2]; 30 Min): 21.33%
Tail immersion latency reaction time ([2]; 60 Min after oral administration): 5.83 s
Percentage maximum possible effect ([2]; 60 Min): 26.67%
Tail immersion latency reaction time ([2]; 90 Min after oral administration): 6.50 s
Percentage maximum possible effect ([2]; 90 Min): 32.00%
Tail immersion latency reaction time ([2]; 120 Min after oral administration): 7.50 s
Percentage maximum possible effect ([2]; 120 Min): 40.00%
Tail immersion latency reaction time ([2]; 180 Min after oral administration): 8.33 s
Percentage maximum possible effect ([2]; 180 Min): 46.67%
Tail immersion latency reaction time ([2]; 240 Min after oral administration): 7.50 s
Percentage maximum possible effect ([2]; 240 Min): 40.00%
Percentage maximum possible effect compared with Pain control group (in words) ([2]; different intervals of time): significant increased
Tail immersion latency reaction time compared with Pain control group (in words) ([2]; different time intervals, One way anova, Dunnet test, P<0.05): significant increased

CC(C)C[C@H](CN)CC(=O)O [Pregabalin (LYRICA ®) 75 mg, Pregabalin, reference compound]
Regulation in Terms of Folds, eNOS (normalized to β-Actin) ([1]; 125 μg/ml): 1.58 fold
eNOS gene expression up-regulated over control ([1]; standard product (125 μg/ml), increase over control): 0.58 fold
Percentage maximum possible effect compared with Pain control group (in words) ([2]; mouse, in vivo): significant increased
Tail immersion latency reaction time compared with Pain control group (in words) ([2]; mouse, in vivo): significant increased
